In patent US20240376076A1, “INHIBITORS TARGETING UBIQUITIN SPECIFIC PROTEASE 7 (USP7)” (Dana-Farber Cancer Institute, Inc., priority 2021, published 2024):

Tests used:
[1] = target: T1, USP7, Active human recombinant protein (Homo sapiens, UniProt Q93009); experiment: USP7 assay (Ubiquitin-Rhodamine 110 enzymatic assay); type: biochemical; details: read-out: IC50
T1 construct: purchased CP Lot; 20200225001
Summary of the method: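 Kinetic 20-min fluorescence read (485/535 nm) of ubiquitin-rhodamine 110 (190 nM final) cleavage by 0.05 nM USP7 gave slopes. Compounds, 10 concentrations in 3-fold steps, had 15 min RT preincubation with enzyme first. Inhibition relative to max (enzyme+substrate) and min (substrate only) signals, fitted to IC50.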

[2] = mouse liver microsomal stability (Microsome Assay Protocol); type: in vitro ADME; details: pH 7.4; mouse liver microsomes, NADPH, 37° C.; read-out: MLM t1/2, min
Experimental: ND refers to not disclosed.
• 1. Buffer A: 1.0 L of 0.1 M monobasic Potassium Phosphate buffer containing 1.0 mM EDTA Buffer B: 1.0 L of 0.1 M Dibasic Potassium Phosphate buffer containing 1.0 mM EDTA • Buffer C: 0.1 M Potassium Phosphate buffer, 1.0 mM EDTA, pH 7.4 by titrating 700 mL of buffer B with buffer A while monitoring with a pH meter. • 2. Reference compound (Ketanserin) and test compounds spiking solution: • 500 μM spiking solution: added 10 μL of 10 mM DMSO stock solution into 190 μL ACN. • 1.5 μM spiking solution in microsomes (0.75 mg/mL): added 1.5 μL of 500 μM spiking solution and 18.75 μL of 20 mg/mL liver microsomes into 479.75 μL of Buffer C on ice. • 3. Prepared NADPH stock solution (6 mM) by dissolving NADPH into buffer C. Dispensed 30 μL of 1.5 μM spiking solution containing 0.75 mg/mL microsomes solution to the assay plates designated for different time points (0-, 5-, 15-, 30-, 45-min) on ice. For 0-min, added 135 μL of ACN containing IS to the wells of 0-min plate and then added 15 μL of NADPH stock solution (6 mM). Pre-incubated all other plates at 37° C. for 5 minutes. Added 15 μL of NADPH stock solution (6 mM) to the plates to start the reaction and timing. At 5-min, 15-min, 30-min, and 45-min, added 135 μL of ACN containing IS to the wells of corresponding plates, respectively, to stop the reaction. After quenching, shook the plates at the vibrator (IKA, MTS 2/4) for 10 min (600 rpm/min) and then centrifuged at 5594 g for 15 min (Thermo Multifuge×3R). Transferred 50 μL of the supernatant from each well into a 96-well sample plate containing 50 μL of ultra pure water (Millipore, ZMQS50F01) for LC/MS analysis.

T1 sequence (Q93009 whole entry): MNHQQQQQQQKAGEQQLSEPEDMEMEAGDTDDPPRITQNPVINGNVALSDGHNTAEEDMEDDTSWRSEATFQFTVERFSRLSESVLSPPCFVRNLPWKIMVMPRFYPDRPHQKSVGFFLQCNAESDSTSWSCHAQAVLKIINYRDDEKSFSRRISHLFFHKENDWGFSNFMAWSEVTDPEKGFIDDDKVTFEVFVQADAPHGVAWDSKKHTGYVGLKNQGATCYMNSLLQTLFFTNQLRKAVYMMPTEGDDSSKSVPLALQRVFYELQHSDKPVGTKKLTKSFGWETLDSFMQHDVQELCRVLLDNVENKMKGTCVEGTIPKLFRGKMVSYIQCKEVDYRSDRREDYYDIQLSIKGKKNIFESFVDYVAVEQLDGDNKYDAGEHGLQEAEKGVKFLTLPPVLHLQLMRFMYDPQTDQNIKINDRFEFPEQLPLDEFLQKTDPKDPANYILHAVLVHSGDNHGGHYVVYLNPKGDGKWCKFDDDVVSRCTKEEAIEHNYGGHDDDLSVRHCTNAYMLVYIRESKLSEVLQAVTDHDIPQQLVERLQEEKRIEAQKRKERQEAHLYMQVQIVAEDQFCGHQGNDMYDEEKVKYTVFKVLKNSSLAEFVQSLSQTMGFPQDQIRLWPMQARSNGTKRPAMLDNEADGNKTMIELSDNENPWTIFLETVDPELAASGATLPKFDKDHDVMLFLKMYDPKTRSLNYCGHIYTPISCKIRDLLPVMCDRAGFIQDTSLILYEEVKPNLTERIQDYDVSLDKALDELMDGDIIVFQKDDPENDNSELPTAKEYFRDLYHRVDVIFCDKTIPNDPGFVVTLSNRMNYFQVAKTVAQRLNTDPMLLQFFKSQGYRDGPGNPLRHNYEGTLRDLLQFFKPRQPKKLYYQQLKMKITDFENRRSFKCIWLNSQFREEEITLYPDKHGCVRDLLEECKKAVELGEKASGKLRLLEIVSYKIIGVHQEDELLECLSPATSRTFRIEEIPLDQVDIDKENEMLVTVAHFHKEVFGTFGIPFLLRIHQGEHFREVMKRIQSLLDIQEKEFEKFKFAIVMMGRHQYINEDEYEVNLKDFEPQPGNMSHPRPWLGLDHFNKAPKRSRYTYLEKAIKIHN

| Compound | IC50 [1] | half-life at 1 µM [2] |
| --- | --- | --- |
| CN1CCN(CC(=O)Nc2ccc3c(=O)n(CC4(O)CCN(C(=O)C(CCCNC(=O)c5ccc6c(Cl)ccnc6c5)Cc5ccccc5)CC4)cnc3c2)CC1 (centres unmarked) [Compound 29, N-(4-benzyl-5-(4-hydroxy-4-((7-(2-(4-methylpiperazin-1-yl)acetamido)-4-oxoquinazolin-3(4H)-yl)methyl)piperidin-1-yl)-5-oxopentyl)-4-chloroquinoline-7-carboxamide] | 20 to 100 nM | 16.7 min |
| CN(C)CC(=O)Nc1ccc2c(=O)n(CC3(O)CCN(C(=O)C(CCCNC(=O)c4ccc5c(Cl)c6c(nc5c4)CN(C)C6)Cc4ccccc4)CC3)cnc2c1 (centres unmarked) [Compound 31, N-(4-benzyl-5-(4-((7-(2-(dimethylamino)acetamido)-4-oxoquinazolin-3(4H)-yl)methyl)-4-hydroxypiperidin-1-yl)-5-oxopentyl)-9-chloro-2-methyl-2,3-dihydro-1H-pyrrolo[3,4-b]quinoline-6-carboxamide] | 100 to 1000 nM | 2.9 min |
| CN(C)CC(=O)Nc1ccc2c(=O)n(CC3(O)CCN(C(=O)C(CCCNC(=O)c4ccc5c(Cl)c6c(nc5c4)CCN(C)C6)Cc4ccccc4)CC3)cnc2c1 (centres unmarked) [Compound 32, N-(4-benzyl-5-(4-((7-(2-(dimethylamino)acetamido)-4-oxoquinazolin-3(4H)-yl)methyl)-4-hydroxypiperidin-1-yl)-5-oxopentyl)-10-chloro-2-methyl-1,2,3,4-tetrahydrobenzo[b][1,6]naphthyridine-7-carboxamide] | 20 to 100 nM | 2.5 min |
| CC(=O)N1CCc2nc3cc(C(=O)NCCCC(Cc4ccccc4)C(=O)N4CCC(O)(Cn5cnc6cc(NC(=O)CN(C)C)ccc6c5=O)CC4)ccc3c(Cl)c2C1 (centres unmarked) [Compound 33, 2-acetyl-N-(4-benzyl-5-(4-((7-(2-(dimethylamino)acetamido)-4-oxoquinazolin-3(4H)-yl)methyl)-4-hydroxypiperidin-1-yl)-5-oxopentyl)-10-chloro-1,2,3,4-tetrahydrobenzo[b][1,6]naphthyridine-7-carboxamide] | < 20 nM | 2.1 min |
| CN(C)CCC(=O)Nc1ccc2c(=O)n(CC3(O)CCN(C(=O)C(CCCNC(=O)c4ccc5c(Cl)ccnc5n4)Cc4ccccc4)CC3)cnc2c1 (centres unmarked) [Compound 47, N-(4-benzyl-5-(4-((7-(3-(dimethylamino)propanamido)-4-oxoquinazolin-3(4H)-yl)methyl)-4-hydroxypiperidin-1-yl)-5-oxopentyl)-5-chloro-1,8-naphthyridine-2-carboxamide] | 20 to 100 nM | 12.4 min |
| Cc1cc(Cl)c2ccc(C(=O)NCCCC(Cc3ccccc3)C(=O)N3CCC(O)(Cn4cnc5cc(NC(=O)CCN(C)C)ccc5c4=O)CC3)cc2n1 (centres unmarked) [Compound 49, N-(4-benzyl-5-(4-((7-(3-(dimethylamino)propanamido)-4-oxoquinazolin-3(4H)-yl)methyl)-4-hydroxypiperidin-1-yl)-5-oxopentyl)-4-chloro-2-methylquinoline-7-carboxamide] | < 20 nM | 13.5 min |
| CN(C)CCC(=O)Nc1ccc2c(=O)n(CC3(O)CCN(C(=O)c4cn(CCNC(=O)c5ccc6c(Cl)ccnc6c5)nc4Cc4ccccc4)CC3)cnc2c1 [Compound 52, N-(2-(3-benzyl-4-(4-((7-(3-(dimethylamino)propanamido)-4-oxoquinazolin-3(4H)-yl)methyl)-4-hydroxypiperidine-1-carbonyl)-1H-pyrazol-1-yl)ethyl)-4-chloroquinoline-7-carboxamide] | 100 to 1000 nM | 15.1 min |
| CN(C)CCC(=O)Nc1ccc2c(=O)n(CC3(O)CCN(C(=O)C4CN(CCNC(=O)c5ccc6c(Cl)ccnc6c5)CC4Cc4ccccc4)CC3)cnc2c1 (centres unmarked) [Compound 54] | 20 to 100 nM | 36.5 min |
| CN(C)CCC(=O)Nc1ccc2c(=O)n(CC3(O)CCN(C(=O)c4cn(CCNC(=O)c5ccc6c(Cl)ccnc6c5)nc4C4CC4)CC3)cnc2c1 [Compound 56, 4-chloro-N-(2-(3-cyclopropyl-4-(4-((7-(3-(dimethylamino)propanamido)-4-oxoquinazolin-3(4H)-yl)methyl)-4-hydroxypiperidine-1-carbonyl)-1H-pyrazol-1-yl)ethyl)quinoline-7-carboxamide] | > 1000 nM | 95.9 min |
| CN(C)CCC(=O)Nc1ccc2c(=O)n(CC3(O)CCN(C(=O)C(CCCNC(=O)c4ccc5c(Cl)cc(O)nc5c4)Cc4ccccc4)CC3)cnc2c1 (centres unmarked) [Compound 65] | 100 to 1000 nM | 12.8 min |
| CNc1cc(Cl)nc2cc(C(=O)NCCCC(Cc3ccccc3)C(=O)N3CCC(O)(Cn4cnc5cc(NC(=O)CCN(C)C)ccc5c4=O)CC3)ccc12 (centres unmarked) [Compound 70] | 20 to 100 nM | 10.3 min |
| CN(C)CCC(=O)Nc1ccc2c(=O)n(CC3(O)CCN(C(=O)C(CCCNC(=O)c4ccc5c(Cl)cc(C(N)=O)nc5c4)Cc4ccccc4)CC3)cnc2c1 (centres unmarked) [Compound 71] | 100 to 1000 nM | 54.6 min |
| Cc1cc(Cl)c2ccc(C(=O)N3CCN(CC(=O)N4CCC(O)(Cn5cnc6cc(Cl)ccc6c5=O)CC4)CC3)cc2n1 [Compound 80] | > 1000 nM | 5.41 min |

Continued, values first:

| IC50 [1] | half-life at 1 µM [2] | Compound |
| --- | --- | --- |
| 20 to 100 nM | 7.4 min | CN(C)CCC(=O)Nc1ccc2c(=O)n(CC3(O)CCN(C(=O)C(CCCNC(=O)c4ccc5c(Cl)c6c(nc5c4)CN(C)CC6)Cc4ccccc4)CC3)cnc2c1 (centres unmarked) [Compound 40, N-(4-benzyl-5-(4-((7-(3-(dimethylamino)propanamido)-4-oxoquinazolin-3(4H)-yl)methyl)-4-hydroxypiperidin-1-yl)-5-oxopentyl)-5-chloro-2-methyl-1,2,3,4-tetrahydrobenzo[b][1,7]naphthyridine-8-carboxamide] |
| > 1000 nM | 35.6 min | CN(C)CCC(=O)Nc1ccc2c(=O)n(CC3(O)CCN(C(=O)c4cn(CCNC(=O)c5ccc6c(Cl)ccnc6c5)nc4-c4ccccc4)CC3)cnc2c1 [Compound 55, 4-chloro-N-(2-(4-(4-((7-(3-(dimethylamino)propanamido)-4-oxoquinazolin-3(4H)-yl)methyl)-4-hydroxypiperidine-1-carbonyl)-3-phenyl-1H-pyrazol-1-yl)ethyl)quinoline-7-carboxamide] |
| 20 to 100 nM | 2.71 min | O=C(CCN1CCOCC1)Nc1ccc2c(=O)n(CC3(O)CCN(C(=O)C(CCCNC(=O)c4ccc5c(Cl)ccnc5c4)Cc4ccccc4)CC3)cnc2c1 (centres unmarked) [Compound 60, N-(4-benzyl-5-(4-hydroxy-4-((7-(3-morpholinopropanamido)-4-oxoquinazolin-3(4H)-yl)methyl)piperidin-1-yl)-5-oxopentyl)-4-chloroquinoline-7-carboxamide] |
| 100 to 1000 nM | 4.16 min | O=C(CCn1ccnc1)Nc1ccc2c(=O)n(CC3(O)CCN(C(=O)C(CCCNC(=O)c4ccc5c(Cl)ccnc5c4)Cc4ccccc4)CC3)cnc2c1 (centres unmarked) [Compound 63, N-(5-(4-((7-(3-(1H-imidazol-1-yl)propanamido)-4-oxoquinazolin-3(4H)-yl)methyl)-4-hydroxypiperidin-1-yl)-4-benzyl-5-oxopentyl)-4-chloroquinoline-7-carboxamide] |
| > 1000 nM | 4.5 min | CNc1cc(Cl)c2ccc(C(=O)NCCCC(Cc3ccccc3)C(=O)N3CCC(O)(Cn4cnc5cc(NC(=O)CCN(C)C)ccc5c4=O)CC3)cc2n1 (centres unmarked) [Compound 69] |
| 100 to 1000 nM | 29.5 min | CN(C)CCC(=O)Nc1ccc2c(=O)n(CC3(O)CCN(C(=O)C(Cc4ccccc4)c4cccc(NC(=O)c5ccc6c(Cl)ccnc6c5)c4)CC3)cnc2c1 (centres unmarked) [Compound 72] |
